Several values for one entry are separate records, joined by “and”; a condition that tells them apart may be missing. Equal values may be shown once.
What was measured:
germline ε promoter = test: Functional profile of BR10A1 wt and mutants in the A5T4 reporter cell line; type: cell-based, human; conditions: for Reporter Ratio: A5T4 reporter line; for functional category as compared to the activity of the wild type peptide: based on reporter ratio, % change calculated after subtracting 1.0 from the ratios
Protocol: Following infection, the library was enriched for cells expressing peptides that inhibit IL-4 induced ε transcription as generally outlined in the top half of FIG. 3 and sorted by FACS into single cell clones. The clones were then screened as generally illustrated in the lower half of FIG. 3. Briefly, for screening, each clone was divided into two populations and one population was treated with Dox (10 ng/ml). After 5 days, both populations were stimulated with IL-4 (final conc. 60 U/mL; PeptroTech, Inc.) and, after 3 more days, both populations were analyzed by FACS to measure BFP and GFP fluorescence. FACS data were converted to a “reporter ratio”, which is defined for this purpose as the ratio of the geometric mean of GFP fluorescence of the +IL-4/+Dox to the +IL-4/−Dox populations. Cells expressing a peptide that inhibits germline ε transcription have a reporter ratio of ≧1.1. A reporter ratio of ≧1.2 is indicative of strong inhibition.
The ability of peptide BR10A1 wt to inhibit germline ε transcription was confirmed in naive cells. Briefly, Phoenix cells were transfected with a retroviral vector encoding a BFP-BR10A1 wt peptide fusion as described in WO 99/58663 and WO 97/27213. Naïve A5T4 cells were infected with the resultant virions and grown for 3 days. The infected cells were stimulated with IL-4 (60 U/mL) and, after 3 days, the cells were assessed by FACS for BFP and GFP. […] The BFP fluorescence data corresponding to the BFP^+ and BFP^− populations are provided in Panel A. The GFP fluorescence data corresponding to the BFP^+ and BFP^− populations are presented in Panel B. The reporter ratio for this purpose is determined as the geometric mean of the GFP fluorescence of the BFP^− population divided by the geometric mean of the GFP fluorescence of the BFP^+ population. The reporter ratio for the BR10A1 in this re-infection assay was 1.27.
A collection of BR10A1 mutants was generated by replacing single or double amino acid residues in the sequence of BR10A1 wt with a different amino acid, typically an alanine or glycine, as described in copending application Ser. No.10/095,659, entitled Methods of Identifying Protein Targets, filed Mar. 8, 2002 . The functional profiles for the mutants derived from BR10A1 wt was obtained by constructing and screening for activity in the A5T4 reporter cell line in the manner described above. The activity of each mutant at the germline ε promoter is reflected in the reporter ratio as described above. The reporter ratios were the functional values that were used to develop the functional profiles. Measurement of the reporter ratios of the mutant peptides was carried out in a number of separate experiments, each time comparing the value of cells transfected with mutant peptide to that of cells transfected with control WT peptide done at the same time. The reporter ratios of the control WT peptide can vary depending upon a number of factors including the infectivity or the state of the infected cells at the time of infection.
TABLE 2 depicts the amino acid sequences (the dual alanine mutations are underlined) of the mutants tested and the measured reporter ratios when screening in the A5T4 reporter line.
Comparison of the interaction and functional profiles was performed by categorizing the mutants of BR10A1 based on the functional and interaction assays. Based on the reporter ratio, each mutant was categorized into one of four functional categories: (1) reduction of function (ROF); (2) loss of function (LOF); (3) increase of function (IOF) or (4) functionally neutral (N) as compared to the activity of the wild type peptide, here BR10A1 wt. As mentioned previously, cells expressing a peptide that inhibits germline ε transcription have reporter ratios of ≧1.1. Cells expressing a loss of function (LOF) mutant have a reporter ratio of <1.11. […] Functionally neutral mutants have reporter ratios that fall within ±50% of that of the BR10A1 wt peptide. […]

human c-Myc protein = target: T1, human c-Myc protein (Homo sapiens, UniProt P01106); test: Yeast two hybrid (YTH) interaction assay, β-galactosidase; type: binding
T1 construct: expressed in transfected cells; prey cDNA library made from the A5T4 reporter line (human BJAB B-cells)
Protocol: Potential binding partners for peptide BR10A1 wt were identified in a β-galactosidase yeast two-hybrid (YTH) assay using peptide BR10A1 wt as bait and a cDNA library constructed from the A5T4 reporter cell line as prey. Binding was assessed by β-galactosidase quantification using BetaFluor (Novagen) as a substrate. A negative interaction control (no cDNA fused downstream of the GAL4 activation domain sequence) was also run. A general outline of the YTH assay is illustrated in FIG. 5A. Following clustering, filtering to remove non-specific bait hits (e.g., GFP and BFP), singletons and clusters recognized by 10 or more cDNA baits (based upon historical YTH assays), and prioritization, 30 prey clones were identified as hits.
Potential targets identified in the YTH assay were reconfirmed as generally outlined in FIG. 6. The cDNA clones identified as hits in the YTH assay were purified and rescreened for interaction with the BR10A1 wt peptide in a YTH assay. The hit clones were also screened in a control assay for interaction with the BFP using a vector (pGBKT7) that contained only the BFP and not the BR10A1 peptide. At this stage, 25 putative target clones remained.
The interaction of BR10A1 wt peptide and its mutants with the clones identified as potential targets for the peptide BR10A1 wt was then quantified in a β-galactosidase YTH assay. The YTH assay was performed in the manner described above. A general outline of this YTH assay is illustrated in FIG. 5B. For each clone tested, an interaction profile was developed by comparing the β-galactosidase activity of each mutant to that of the wild type peptide as described above.
The interaction of selected IOF, ROF and LOF mutants with different polypeptides encoded by the putative target clones were quantified using the YTH assay described above. Based on the YTH assay, for each putative target, the mutants were categorized into the following four interaction categories: (1) reduction of interaction (ROI); (2) loss of interaction (LOI); (3) increase of interaction (IOI); and (4) interactionally neutral (N), by assessing the binding affinity ratio of the mutant peptide and the wild type peptide (β-gal activity of mutant/wild type) to the putative target. The selection criteria for categorizing the interactions is shown on FIG. 8.

[1] = separate experiment with its own WT control
[2] = second value column (separate experiment with its own WT control)

T1 sequence (P01106 whole entry): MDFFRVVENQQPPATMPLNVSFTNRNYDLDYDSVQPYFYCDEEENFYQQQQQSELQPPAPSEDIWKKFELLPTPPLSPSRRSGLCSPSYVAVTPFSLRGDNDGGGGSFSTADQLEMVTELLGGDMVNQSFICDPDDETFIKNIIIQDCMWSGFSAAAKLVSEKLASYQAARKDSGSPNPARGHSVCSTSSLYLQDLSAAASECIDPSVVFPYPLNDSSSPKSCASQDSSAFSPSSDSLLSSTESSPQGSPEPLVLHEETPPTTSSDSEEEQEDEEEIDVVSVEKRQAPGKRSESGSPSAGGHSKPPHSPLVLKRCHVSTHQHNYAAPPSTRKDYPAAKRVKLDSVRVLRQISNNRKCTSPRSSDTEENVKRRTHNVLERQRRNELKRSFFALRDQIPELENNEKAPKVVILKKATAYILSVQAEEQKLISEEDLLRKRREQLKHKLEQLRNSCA

Sequence	Reporter Ratio (germline ε promoter; [1])	binding to human c-Myc protein in yeast two hybrid interaction assay (human c-Myc protein)	Reporter Ratio (germline ε promoter; [2])	other results
AARRESCITRSVEEGWGLFYLGP (peptide encoded by random oligo-BR10A1MQ) [dual alanine mutant of BR10A1 wt]	1.57			
MQAAESCITRSVEEGWGLFYLGP (peptide encoded by random oligo-BR10A1RR) [dual alanine mutant of BR10A1 wt]				Reporter Ratio (germline ε promoter; first value column (separate experiment with its own WT control)): 1.32
MQRRAACITRSVEEGWGLFYLGP (peptide encoded by random oligo-BR10A1ES) [dual alanine mutant of BR10A1 wt]	1.50	found to bind		
MQRRESAATRSVEEAAGLFYLGP (peptide encoded by random oligo-BR10A1CIGW) [mutant of BR10A1 wt with alanines at CI and GW]				Reporter Ratio (germline ε promoter; fourth value column (separate experiment with its own WT control)): 1.08 and 1.15; functional category as compared to the activity of the wild type peptide (germline ε promoter): LOF/ROF
MQRRESAATRSVEEGWGLFYLGP (peptide encoded by random oligo-BR10A1CI) [dual alanine mutant of BR10A1 wt]		found to bind	1.16	functional category as compared to the activity of the wild type peptide (germline ε promoter): ROF (a reduction of function (ROF) of mutant shows a >50% decrease in reporter ratio)
MQRRESCIAASVEEGWGLFYLGP (peptide encoded by random oligo-BR10A1TR) [dual alanine mutant of BR10A1 wt]		found to bind	1.62	functional category as compared to the activity of the wild type peptide (germline ε promoter): IOF (An increase of function mutant (IOF) shows a >50% increase in reporter ratio)
MQRRESCITRSVAAGWGLFYLGP (peptide encoded by random oligo-BR10A1EE) [dual alanine mutant of BR10A1 wt]			1.39	
MQRRESCITRSVEEAAGLFYLGP (peptide encoded by random oligo-BR10A1GW) [dual alanine mutant of BR10A1 wt]			1.23	
MQRRESCITRSVEEGWAAFYLGP (peptide encoded by random oligo-BR10A1GL) [dual alanine mutant of BR10A1 wt]		found to bind	1.44	
MQRRESCITRSVEEGWGLAALGP (peptide encoded by random oligo-BR10A1FY) [dual alanine mutant of BR10A1 wt]	1.34			
MQRRESCITRSVEEGWGLFY (peptide encoded by random oligo-BR10A1STOP) [C-terminally truncated form of BR10A1 wt]	1.34			

From patent US7241581B2, “Methods of identifying compounds that modulate IL-4 receptor-mediated IgE synthesis utilizing a c-MYC protein” (Rigel Pharmaceuticals, Inc., priority 2002, dated 2007)
